#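 Method: 48-hour compound exposure of cells in 96-well plates, five concentrations, linear interpolation of endpoints. GI50 marks 50% less growth.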 The source made the active and inactive calls. Rule as the data show it: active = GI50 up to about 1.1 µM and inactive = higher.
# How the values were obtained:
# Experiment in all cases: NCI tumour cell line growth inhibition, 48 h
# SF-295 = tested on: SF-295
# HCT-116 = tested on: HCT-116
# RXF 393 = tested on: RXF 393
# NCI-H23 = tested on: NCI-H23
# SW-620 = tested on: SW-620
# M14 = tested on: M14
# K562 = tested on: K562
# A498 = tested on: A498
# NCI-H522 = tested on: NCI-H522
# UO-31 = tested on: UO-31
# SK-MEL-5 = tested on: SK-MEL-5
# SK-OV-3 = tested on: SK-OV-3
# KM-20L2 = tested on: KM-20L2
# HL-60 = tested on: HL-60
# A549 = tested on: A549
# SF-539 = tested on: SF-539
# LXFL 529 = tested on: LXFL 529
# NCI-H460 = tested on: NCI-H460
# HOP-18 = tested on: HOP-18
# SN12C = tested on: SN12C
# DMS-114 = tested on: DMS-114
# RXF 631 = tested on: RXF 631
# HOP-62 = tested on: HOP-62
# COLO 205 = tested on: COLO 205
# LOX IMVI = tested on: LOX IMVI
# MOLT-4 = tested on: MOLT-4
# ACHN = tested on: ACHN
# OVCAR-8 = tested on: OVCAR-8
# DMS-273 = tested on: DMS-273
# SF-268 = tested on: SF-268
# HCT-15 = tested on: HCT-15
# RPMI-8226 = tested on: RPMI-8226
# EKVX = tested on: EKVX
# DLD-1 = tested on: DLD-1
# U-251 = tested on: U-251
# TK-10 = tested on: TK-10
# XF498 = tested on: XF498
# HOP-92 = tested on: HOP-92
# SK-MEL-28 = tested on: SK-MEL-28
# CCRF-CEM = tested on: CCRF-CEM
# SNB-19 = tested on: SNB-19
# HCC 2998 = tested on: HCC 2998
# SNB-75 = tested on: SNB-75
# NCI-H226 = tested on: NCI-H226
# Malme-3M = tested on: Malme-3M
# HT-29 = tested on: HT-29
# SK-MEL-2 = tested on: SK-MEL-2
# 786-0 = tested on: 786-0
# KM12 = tested on: KM12
# OVCAR-3 = tested on: OVCAR-3
# UACC-62 = tested on: UACC-62
# M19-MEL = tested on: M19-MEL
# UACC-257 = tested on: UACC-257
# OVCAR-4 = tested on: OVCAR-4
# CAKI-1 = tested on: CAKI-1
# IGROV-1 = tested on: IGROV-1
# SNB-78 = tested on: SNB-78
# OVCAR-5 = tested on: OVCAR-5
# SR = tested on: SR
structure (smiles),measurement,setting,value
Nc1ccn(C2OC(C(O)CO)C(O)C2O)c(=O)n1 (configuration not stated),GI50,SF-295,> 100 µM (inactive)
same,GI50,HCT-116,> 100 µM (inactive)
same,GI50,RXF 393,> 100 µM (inactive)
same,GI50,NCI-H23,> 100 µM (inactive)
same,GI50,SW-620,> 100 µM (inactive)
same,GI50,M14,> 100 µM (inactive)
same,GI50,K562,> 100 µM (inactive)
same,GI50,A498,> 100 µM (inactive)
same,GI50,NCI-H522,> 100 µM (inactive)
same,GI50,UO-31,69.2 µM (inactive)
same,GI50,SK-MEL-5,> 100 µM (inactive)
same,GI50,SK-OV-3,> 100 µM (inactive)
same,GI50,KM-20L2,> 100 µM (inactive)
same,GI50,HL-60,> 100 µM (inactive)
same,GI50,A549,> 100 µM (inactive)
same,GI50,SF-539,> 100 µM (inactive)
same,GI50,LXFL 529,> 100 µM (inactive)
same,GI50,NCI-H460,> 100 µM (inactive)
same,GI50,HOP-18,> 100 µM (inactive)
same,GI50,SN12C,> 100 µM (inactive)
same,GI50,DMS-114,> 100 µM (inactive)
same,GI50,RXF 631,> 100 µM (inactive)
same,GI50,HOP-62,> 100 µM (inactive)
same,GI50,COLO 205,> 100 µM (inactive)
same,GI50,LOX IMVI,> 100 µM (inactive)
same,GI50,MOLT-4,> 100 µM (inactive)
same,GI50,ACHN,> 100 µM (inactive)
same,GI50,OVCAR-8,> 100 µM (inactive)
same,GI50,DMS-273,> 100 µM (inactive)
same,GI50,SF-268,> 100 µM (inactive)
same,GI50,HCT-15,> 100 µM
same,GI50,RPMI-8226,> 100 µM (inactive)
same,GI50,EKVX,> 100 µM (inactive)
same,GI50,DLD-1,> 100 µM (inactive)
same,GI50,U-251,> 100 µM (inactive)
same,GI50,TK-10,> 100 µM (inactive)
same,GI50,XF498,> 100 µM (inactive)
same,GI50,HOP-92,> 100 µM (inactive)
same,GI50,SK-MEL-28,> 100 µM (inactive)
same,GI50,CCRF-CEM,> 100 µM (inactive)
O=C1CSc2cc([N+](=O)[O-])ccc2N1,GI50,SF-295,> 100 µM (inactive)
same,GI50,HCT-116,> 100 µM (inactive)
same,GI50,RXF 393,> 100 µM (inactive)
same,GI50,NCI-H23,> 100 µM (inactive)
same,GI50,SW-620,> 100 µM (inactive)
same,GI50,M14,> 100 µM (inactive)
same,GI50,K562,> 100 µM (inactive)
same,GI50,A498,> 100 µM (inactive)
same,GI50,NCI-H522,> 100 µM (inactive)
same,GI50,SNB-19,> 100 µM (inactive)
same,GI50,SK-MEL-5,> 100 µM (inactive)
same,GI50,HCC 2998,> 100 µM (inactive)
same,GI50,SK-OV-3,> 100 µM (inactive)
same,GI50,KM-20L2,> 100 µM (inactive)
same,GI50,SNB-75,22.1 µM (inactive)
same,GI50,NCI-H226,> 100 µM (inactive)
same,GI50,Malme-3M,> 100 µM (inactive)
same,GI50,A549,> 100 µM (inactive)
same,GI50,SF-539,> 100 µM (inactive)
same,GI50,LXFL 529,> 100 µM (inactive)
same,GI50,NCI-H460,> 100 µM (inactive)
same,GI50,HOP-18,> 100 µM (inactive)
same,GI50,HT-29,> 100 µM (inactive)
same,GI50,SN12C,> 100 µM (inactive)
same,GI50,DMS-114,> 100 µM (inactive)
same,GI50,RXF 631,> 100 µM (inactive)
same,GI50,SK-MEL-2,> 100 µM (inactive)
same,GI50,786-0,> 100 µM (inactive)
same,GI50,HOP-62,> 100 µM (inactive)
same,GI50,COLO 205,> 100 µM (inactive)
same,GI50,LOX IMVI,> 100 µM (inactive)
same,GI50,MOLT-4,> 100 µM (inactive)
same,GI50,KM12,> 100 µM (inactive)
same,GI50,OVCAR-3,> 100 µM (inactive)
same,GI50,UACC-62,> 100 µM (inactive)
same,GI50,M19-MEL,> 100 µM (inactive)
same,GI50,ACHN,> 100 µM (inactive)
same,GI50,UACC-257,> 100 µM (inactive)
same,GI50,OVCAR-4,> 100 µM (inactive)
same,GI50,OVCAR-8,> 100 µM (inactive)
same,GI50,DMS-273,> 100 µM (inactive)
same,GI50,SF-268,> 100 µM (inactive)
same,GI50,HCT-15,> 100 µM
same,GI50,EKVX,> 100 µM (inactive)
same,GI50,DLD-1,> 100 µM (inactive)
same,GI50,U-251,> 100 µM (inactive)
same,GI50,CAKI-1,> 100 µM (inactive)
same,GI50,TK-10,> 100 µM (inactive)
same,GI50,IGROV-1,> 100 µM (inactive)
same,GI50,XF498,> 100 µM (inactive)
same,GI50,SNB-78,> 100 µM (inactive)
same,GI50,SK-MEL-28,> 100 µM (inactive)
same,GI50,OVCAR-5,> 100 µM (inactive)
same,GI50,CCRF-CEM,> 100 µM (inactive)
COC(=O)C12C3C4C1C1C2C3C41C(=O)OC(C)(C)C (configuration not stated),GI50,SF-295,> 100 µM (inactive)
same,GI50,HCT-116,26.7 µM (inactive)
same,GI50,RXF 393,> 100 µM (inactive)
same,GI50,NCI-H23,> 100 µM (inactive)
same,GI50,SW-620,> 36.2 µM (inactive)
same,GI50,M14,> 100 µM (inactive)
same,GI50,K562,> 70.1 µM (inactive)
same,GI50,A498,> 100 µM (inactive)
same,GI50,NCI-H522,> 100 µM (inactive)
same,GI50,SNB-19,> 100 µM (inactive)
same,GI50,UO-31,> 100 µM (inactive)
same,GI50,SK-MEL-5,> 100 µM (inactive)
same,GI50,SK-OV-3,> 100 µM (inactive)
same,GI50,KM-20L2,> 100 µM (inactive)
same,GI50,SNB-75,> 100 µM (inactive)
same,GI50,NCI-H226,> 100 µM (inactive)
same,GI50,Malme-3M,> 100 µM (inactive)
same,GI50,HL-60,> 53.8 µM (inactive)
same,GI50,A549,> 64.3 µM (inactive)
same,GI50,SF-539,> 100 µM (inactive)
same,GI50,LXFL 529,> 100 µM (inactive)
same,GI50,NCI-H460,> 63.5 µM (inactive)
same,GI50,HOP-18,> 100 µM (inactive)
same,GI50,HT-29,> 100 µM (inactive)
same,GI50,SN12C,> 100 µM (inactive)
same,GI50,DMS-114,> 44.8 µM (inactive)
same,GI50,RXF 631,> 100 µM (inactive)
same,GI50,SK-MEL-2,> 100 µM (inactive)
same,GI50,786-0,> 100 µM (inactive)
same,GI50,HOP-62,> 100 µM (inactive)
same,GI50,COLO 205,> 64 µM (inactive)
same,GI50,LOX IMVI,> 42.9 µM (inactive)
same,GI50,MOLT-4,> 100 µM (inactive)
same,GI50,KM12,> 100 µM (inactive)
same,GI50,OVCAR-3,> 100 µM (inactive)
same,GI50,UACC-62,> 100 µM (inactive)
same,GI50,M19-MEL,> 100 µM (inactive)
same,GI50,ACHN,> 100 µM (inactive)
same,GI50,UACC-257,> 100 µM (inactive)
same,GI50,OVCAR-4,> 100 µM (inactive)
same,GI50,OVCAR-8,> 81.3 µM (inactive)
same,GI50,DMS-273,> 44.1 µM (inactive)
same,GI50,SF-268,> 100 µM (inactive)
same,GI50,HCT-15,> 100 µM
same,GI50,RPMI-8226,> 49.2 µM (inactive)
same,GI50,EKVX,> 100 µM (inactive)
same,GI50,DLD-1,> 47.9 µM (inactive)
same,GI50,SR,19.2 µM (inactive)
same,GI50,U-251,> 100 µM (inactive)
same,GI50,CAKI-1,> 100 µM (inactive)
same,GI50,TK-10,> 100 µM (inactive)
same,GI50,IGROV-1,> 100 µM (inactive)
same,GI50,XF498,> 100 µM (inactive)
same,GI50,SNB-78,> 100 µM (inactive)
same,GI50,HOP-92,> 100 µM (inactive)
same,GI50,SK-MEL-28,> 100 µM (inactive)
same,GI50,OVCAR-5,> 100 µM (inactive)
same,GI50,CCRF-CEM,> 71.3 µM (inactive)
